Reference: patent US20240376484A1, “TRANSFORMING CANNABACEAE CELLS” (Cibus US LLC, priority 2021, published 2024)

Columns and labels:
cannabis EAs [1] = assay: Regeneration of non-transformed cannabis EAs on different SIMs, number of meristems per explant; format: cell-based; settings: added to SIM with TDZ
From the text: Various experiments were directed to testing different culture media and different concentrations of components of the culture media, such as SIMs with different TDZ concentrations. […] Some experiments were directed to testing different SIMs on cannabis EAs and with different light conditions. For example, the seeds were sterilized and imbibed, and the EAs were extracted. In some experiments, the EAs were not transformed, and between 40 and 50 EAs were regenerated on each different SIMs. In further experiments, a subset of the EAs were plated on an SIM without plant growth regulators, such as TDZ, and the remaining EAs were plated on an SIM with 10 mg/L TDZ, with different groups of each subset being exposed to different light conditions.
The images 1680, 1681, 1683, 1684 show resulting explants regenerated in SIM with 1 mg/L TDZ, 2.5 mg/L TDZ, 5 mg/L TDZ, and 10 mg/L TDZ, respectively.
FIG. 16B is a graph illustrating the explants regenerated in the different SIMs as previously described by FIG. 16A and the number of resulting meristems.
In some experiments, additional TDZ concentrations were tested and different combinations of components in the SIM were tested.

cannabis EAs [2] = assay: Regeneration of cannabis EAs on SIM with 10 mg/L TDZ under different light conditions; format: cell-based; settings: for explants with 3+ meristems: 10 mg/L TDZ
From the text: Various experiments were directed to testing different culture media and different concentrations of components of the culture media, such as SIMs with different TDZ concentrations. […] Based on various experiments, it is believed that cannabis plants have strong apical dominance, and breaking the apical dominance will increase transformation efficiency and result in more transgenic events. […] Some experiments were directed to testing different SIMs on cannabis EAs and with different light conditions. For example, the seeds were sterilized and imbibed, and the EAs were extracted. In some experiments, the EAs were not transformed, and between 40 and 50 EAs were regenerated on each different SIMs. In further experiments, a subset of the EAs were plated on an SIM without plant growth regulators, such as TDZ, and the remaining EAs were plated on an SIM with 10 mg/L TDZ, with different groups of each subset being exposed to different light conditions. Tables 2 and 3 summarize example media and light conditions:
The B, G, R values in Table 3 include blue, green, and red light values, along with the intensity of the light.
FIGS. 16F and 16G are graphs illustrating the results of the different light conditions on the number of meristems per explant in cultures without plant growth regulators (FIG. 16F) and with 10 mg/L TDZ (FIG. 16G). […] For example, around half of the 10 mg/L TDZ had multiple meristems, with the light II conditions resulting in 40% explants with 3+ meristems, […] explants with 3+ meristems, and light I conditions resulting in 12% explants with 3+ meristems.

Row | Molecule | impact of SIM additive on regeneration (cannabis EAs [1]) | share of explants with multiple meristems (cannabis EAs [2]; 10 mg/L TDZ in SIM, FIG. 16G) | explants with 3+ meristems (cannabis EAs [2]; light I conditions) [%] | explants with 3+ meristems (cannabis EAs [2]; light II conditions) [%] | explants with 3+ meristems (cannabis EAs [2]; light II conditions (printed a second time)) [%]
1 | O=C(O)Cc1c[nH]c2ccccc12 [IAA, indoleacetic acid] | did not have a significant positive impact |  |  |  | 
2 | O=C(Nc1ccccc1)Nc1cnns1 [TDZ, thidiazuron] |  | around half | 12 | 40 | 24
3 | Adenine Hemisulfate | did not have a significant positive impact |  |  |  | 
